Entries after “also recorded” stand apart in the source; their conditions may differ.
How the values were obtained:
[1] = COS release using membrane inlet mass spectrometry (MIMS); assay type: physicochemical; details: precursor 50 μM, NAC 0.25 mM (5 equiv.), pH 7.4 phosphate buffer saline with DTPA, 37° C.
Description: (§1) COS was analyzed using a Hiden HPR-40 MIMS system with a sample cell and membrane probe that have been optimized to detect gases dissolved in aqueous solution as described previously. Cline et al., 2011. A stock solution of N-acetyl-cysteine (25 mM) was prepared in DI water. RSSH precursor stock solutions (5 mM) were prepared in DMSO. These solutions were degassed by purging with nitrogen for 10 min before COS release analysis. Typically, 20 mL phosphate buffer solution (10 mM) was added to the sample cell, degassed and purged with a continuous flow of argon for 15 min. N-acetyl cysteine (200 μL, 25 mM) and RSSH precursor (200 μL, 5 mM) were then injected using a gas tight syringe and ion current at m/z 60 (COS^+) were collected for 2 h (source pressure was approximately 1×10^−7 to 5×10^−7 Torr).
as §1, with “(COS*)” for “(COS^+)”

[2] = Stability and intermolecular reactivity of control compound 8 by UPLC-MS; assay type: physicochemical; details: 100 μM, 37° C.
Description: FIG. 11 is an UPLC-MS chromatogram of 8 (100 μM) incubated in pH 7.4 ammonium bicarbonate buffer at 37° C. Aliquots taken at various times were quenched with 1% formic acid and analyzed by UPLC-MS.
Aliquots (200 μL) were taken at specified time points, quenched with 1% formic acid (200 μL) and analyzed using UPLC-MS.
FIG. 13 is UPLC-MS chromatograms of control compound 8 (100 μM) reaction with NAC (500 μM) in pH 7.4 ammonium bicarbonate (50 mM) with the metal chelator DTPA (100 μM) at 37° C. Aliquots (200 μL) were taken at specified time points, quenched with 1% formic acid (200 μL) and analyzed using UPLC-MS;

[3] = system: H9c2 cells; test: H9c2 cell protection from H2O2-mediated oxidative stress, SYTOX Green nucleic acid stain; assay type: cell-based, rat; details: 2 h pretreatment (150 μM for 8), then H2O2 200 μM
Description: Cells were seeded at a density of 1×10^4 cells/well. After 24 h, precursor 7b or byproduct 2b is added in 20 μL volumes using DMSO: H2O (<0.01% DMSO). Cells were incubated for 2 h before media was removed and the cells gently washed with PBS (pH 7.4). Then, 180 μL of fresh media and 20 μL H2O2 diluted in H2O were added before cells were incubated for an additional 1 h. After removing this media, 100 μL of media containing 3 μM SYTOX™ Green nucleic acid stain was added, and the cells incubated for 2 h before fluorescence readings were obtained at 485Ex/538Em (Step 1). Finally, an additional 100 μL of media containing 3 μM SYTOX™ and 0.2% Triton X-100 was added in order to permeabilize all cells and incubated for 1 h before fluorescence values measured (Step 2). The relative % cells surviving was calculated as a 100% minus the ratio of the fluorescence value of Step 1 over Step 2 (% cells surviving=100%−(FL538 (Step 1)/FL538 (Step 2)). Fluorescence values for vehicle-treated, non-H2O2-exposed wells were treated as background cell death and this value is added to the % cell survival for each subsequent group.
See Hofgaard et al., 2006, for general procedures. […] After removing this media, 100 μL of media containing 3 μM SYTOX® Green nucleic acid stain was added, and the cells incubated for 2 h before fluorescence readings were obtained at 485Ex/538Em (Step 1). […]

SMILES: CCCN(C)C(=O)SSC(C)(C)C(NC(C)=O)C(=O)OC (centres unmarked) [control compound 8, Methyl 2-acetamido-3-methyl-3-((methyl(propyl)carbamoyl)disulfaneyl)butanoate]
- COS release (m/z=60 signal) [1]: Relatively slow COS release
- RSSH release via intermolecular reaction with thiol ([2]; NAC 500 μM, pH 7.4 ammonium bicarbonate buffer): does not release RSSH via intermolecular reactions
- reaction with n-butylamine (RSSH release via intermolecular reaction) ([2]; n-BuNH2 500 μM (5 equiv.), pH 7.4 ammonium bicarbonate:acetonitrile (9:1), at least over 2 h): no reactivity; also recorded: lack of reaction
- stability / RSSH release at pH 7.4 ([2]; pH 7.4 ammonium bicarbonate buffer): No RSSH release; also recorded: stable under these conditions and does not produce RSSH
- protection against H2O2-mediated toxicity (SYTOX) [3]: protective effects against H2O2-mediated toxicity, but to a lesser extent compared with 7b

— patent US11584712B2, “Alkylamine-substituted perthiocarbamates as dual precursors to hydropersulfide and carbonyl sulfide” (The Johns Hopkins University, priority 2020, dated 2023)
